Experimental data taken from patent US5684026A, “Aminocyclopentane derivative” (priority 1994, dated 1997).
Like-named read-outs stand apart in the source and are kept apart here.

Tests used:
Format in all cases: biochemical
[1] = biological target: T1, β-Galactosidase (E. Coli, EC. 3.2.1.23) (Escherichia coli, UniProt P00722); assay: β-Galactosidase (E. coli) enzyme inhibition assay (o-nitrophenyl β-D-galactopyranoside)
T1 construct: purchased Sigma; host or cells: E. coli
Experimental: (§1) By using a 96-well microplate, the absorbance (at 405 nm) of liberated p- or o-nitrophenol was measured with a microplate reader (MPR-4Ai, manufactured by Tosoh Corporation).
(§2) The enzymes employed herein [α-glucosidase (Baker's yeast), β-glucosidase (Almonds), α-galactosidase (E. coli), β-galactosidase (E. coli) and β-galactosidase (Bovine Liver)] were all purchased from Sigma.
(§3) The substrates (p- or o-nitrophenylglycoside) of these enzymes were all purchased from Sigma.
4) β-Galactosidase (E. Coli, EC. 3.2.1.23) [described in G. R. Craven, E. Steers, Jr. and C. B. Anfinsen, J. Biol. Chem., 240, 2468-2477 (1965)]
Into each well were introduced an aqueous solution of a sample (2 μl), a buffer (153 μl), a 20 mM solution of o-nitrophenyl β-D-galactopyranoside in a buffer (25 μl), a 100 mM 2-mercaptoethanol (10 μl) and a (10 μg/ml) enzyme solution in the buffer (10 μl) to give a total volume of 200 μl. After incubating at room temperature (20°-30° C.) for 30 minutes, the absorbance (A405) of o-nitrophenol liberated by this enzyme reaction was measured. To give the blank absorbance (Ablank), the sample (2 μl), the substrate (25 μl), the buffer solution (163 μl) and 2-mercaptoethanol (10 μl) were incubated in the same manner followed by the measurement of the absorbance. To give the control absorbance (Acontrol), on the other hand, water (2 μl), the substrate (25 μl), the buffer solution (153 μl), 2-mercaptoethanol (10 μl) and the enzyme solution (10 μl) were incubated in the same manner followed by the measurement of the absorbance. A 50 mM phosphate buffer solution (pH 7.3, prepared from KH2 PO4 and K2 HPO4, containing 1.3 mM of MgCl2) was employed as the buffer for the enzyme reaction. The IC50 was determined in the same manner as employed in the case of α-glucosidase.

[2] = biological target: T2, α-Glucosidase (Baker's yeast, EC 3.2.1.20) (Saccharomyces cerevisiae, UniProt P53341); assay: α-Glucosidase enzyme inhibition assay (p-nitrophenyl α-D-glucopyranoside); settings: for inhibitory activity against α-glucosidase (in words): compared with deoxynojirimycin, summary of Tables 1 and 2
T2 construct: purchased Sigma; host or cells: Baker's yeast
T2 sequence (P53341 whole entry): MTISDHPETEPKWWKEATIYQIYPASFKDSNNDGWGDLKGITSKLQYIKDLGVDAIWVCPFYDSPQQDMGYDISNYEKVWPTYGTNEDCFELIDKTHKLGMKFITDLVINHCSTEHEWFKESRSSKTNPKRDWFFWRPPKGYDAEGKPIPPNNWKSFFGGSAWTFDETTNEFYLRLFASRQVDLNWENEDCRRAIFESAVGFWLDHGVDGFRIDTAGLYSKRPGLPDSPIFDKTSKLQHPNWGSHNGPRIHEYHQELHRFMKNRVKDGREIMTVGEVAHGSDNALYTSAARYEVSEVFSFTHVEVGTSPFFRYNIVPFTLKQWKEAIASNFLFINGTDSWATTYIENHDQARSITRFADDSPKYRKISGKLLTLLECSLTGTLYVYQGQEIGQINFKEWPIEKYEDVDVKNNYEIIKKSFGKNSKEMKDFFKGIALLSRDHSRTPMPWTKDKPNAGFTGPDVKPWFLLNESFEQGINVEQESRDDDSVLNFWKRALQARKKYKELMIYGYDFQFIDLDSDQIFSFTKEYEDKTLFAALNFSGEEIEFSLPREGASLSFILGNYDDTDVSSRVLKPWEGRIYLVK
Experimental: as §1
(§4) Incubation was carried out at 37° C. by using a natural incubator (Compact NIB-10, manufactured by Iwaki Glass Co., Ltd.).
as §2, §3
1) α-Glucosidase (Baker's yeast, EC 3.2.1.20) [described in H. Halvorson and L. Ellias, Biochim. Biophys. Acta, 30, 28-40 (1958)]
Into each well were introduced an aqueous solution of a sample (1 μl), a 0.66 mM solution of p-nitrophenyl α-D-glucopyranoside in a buffer (98 μl) and a (0.4 mg/ml) enzyme solution in the buffer (1 μl) to give a total volume of 100 μl. After incubating at 37° C. for 30 minutes, the reaction was ceased by adding a 1M aqueous solution of sodium carbonate (100 μl). Then the absorbance (A405) of p-nitrophenol liberated by this enzyme reaction was measured. To give the blank absorbance (Ablank), the sample (1 μl) and the substrate (99 μl) were incubated in the same manner and an aqueous solution of sodium carbonate (100 μl) was added followed by the measurement of the absorbance. […] The sample at each concentration, the blank and the control were treated each in two wells at the same time. As the buffer, a 0.1M phosphate buffer solution (pH 6.8, prepared from KH2 PO4 and K2 HPO4) was employed.

[3] = biological target: β-Glucosidase (Almonds, EC 3.2.1.21); assay: β-Glucosidase enzyme inhibition assay (p-nitrophenyl β-D-glucopyranoside); settings: for IC50: pH 5.0, 37° C., 45 minutes
Experimental: as §1, §4, §2, §3
2) β-Glucosidase (Almonds, EC 3.2.1.21) [described in A. Kobayashi, Agr. Biol. Chem., 26, 203-207 (1962)]
Into each well were introduced an aqueous solution of a sample (1 μl), a 0.33 mM solution of p-nitrophenyl β-D-glucopyranoside in a buffer (98 μl) and a (0.4 mg/ml) enzyme solution in the buffer (1 μl) to give a total volume of 100 μl. After incubating at 37° C. for 45 minutes, the reaction was ceased by adding a 1M aqueous solution of sodium carbonate (100 μl). Then the absorbance (A405) of p-nitrophenol liberated by this enzyme reaction was measured. To give the blank absorbance (Ablank), the sample (1 μl) and the substrate (99 μl) were incubated in the same manner and an aqueous solution of sodium carbonate (100 μl) was added followed by the measurement of the absorbance. […] As the buffer, a 0.1M acetate buffer solution (pH 5.0, prepared from NaOAc and AcOH) was employed. The IC50 was determined in the same manner as employed in the case of α-glucosidase.

[4] = tested on: α-Galactosidase (E. Coli, EC. 3.2.1.22); assay: α-Galactosidase enzyme inhibition assay (p-nitrophenyl α-D-galactopyranoside); settings: pH 6.5, room temperature, 15 minutes
Experimental: as §1, §2, §3
3) α-Galactosidase (E. Coli, EC. 3.2.1.22) [described in H. Suzuki, S-C. Li and Y-T. Li, J. Biol. Chem., 245, 781-786 (1970)]
Into each well were introduced an aqueous solution of a sample (1 μl), a buffer (74 μl), a 9.9 mM solution of p-nitrophenyl α-D-galactopyranoside in a buffer (20 μl) and a (50 μg/ml) enzyme solution in the buffer (5 μl) to give a total volume of 100 μl. After incubating the resulting mixture at room temperature (20°-30° C.) for 15 minutes, the reaction was ceased by adding a 0.2M borate buffer solution (pH 9.8, prepared from NaOH and H3 BO3, 100 μl). Then the absorbance (A405) of p-nitrophenol liberated by this enzyme reaction was measured. To give the blank absorbance (Ablank), the sample (1 μl), the substrate (20 μl) and the buffer solution (79 μl) were incubated in the same manner and the 0.2M borate buffer solution (100 μl) was added followed by the measurement of the absorbance. To give the control absorbance ([…]), on the other hand, water (1 μl), the substrate (20 μl), the buffer solution (74 μl) and the enzyme solution (5 μl) were incubated in the same manner and the borate buffer solution (100 μl) was added followed by the measurement of the absorbance. A 0.1M phosphate buffer solution (pH 6.5, prepared from KH2 PO4 and K2 HPO4) was employed as the buffer for the enzyme reaction. The IC50 was determined in the same manner as employed in the case of α-glucosidase.

[5] = biological target: T3, α-glucosidase I (Baker's yeast) (Saccharomyces cerevisiae, UniProt P53008); assay: Inhibitory activity on α-glucosidase I (Ki)
T3 construct: made in house; host or cells: Baker's yeast (native enzyme, prepared by the cited method)
T3 sequence (P53008 25-833 limits assumed): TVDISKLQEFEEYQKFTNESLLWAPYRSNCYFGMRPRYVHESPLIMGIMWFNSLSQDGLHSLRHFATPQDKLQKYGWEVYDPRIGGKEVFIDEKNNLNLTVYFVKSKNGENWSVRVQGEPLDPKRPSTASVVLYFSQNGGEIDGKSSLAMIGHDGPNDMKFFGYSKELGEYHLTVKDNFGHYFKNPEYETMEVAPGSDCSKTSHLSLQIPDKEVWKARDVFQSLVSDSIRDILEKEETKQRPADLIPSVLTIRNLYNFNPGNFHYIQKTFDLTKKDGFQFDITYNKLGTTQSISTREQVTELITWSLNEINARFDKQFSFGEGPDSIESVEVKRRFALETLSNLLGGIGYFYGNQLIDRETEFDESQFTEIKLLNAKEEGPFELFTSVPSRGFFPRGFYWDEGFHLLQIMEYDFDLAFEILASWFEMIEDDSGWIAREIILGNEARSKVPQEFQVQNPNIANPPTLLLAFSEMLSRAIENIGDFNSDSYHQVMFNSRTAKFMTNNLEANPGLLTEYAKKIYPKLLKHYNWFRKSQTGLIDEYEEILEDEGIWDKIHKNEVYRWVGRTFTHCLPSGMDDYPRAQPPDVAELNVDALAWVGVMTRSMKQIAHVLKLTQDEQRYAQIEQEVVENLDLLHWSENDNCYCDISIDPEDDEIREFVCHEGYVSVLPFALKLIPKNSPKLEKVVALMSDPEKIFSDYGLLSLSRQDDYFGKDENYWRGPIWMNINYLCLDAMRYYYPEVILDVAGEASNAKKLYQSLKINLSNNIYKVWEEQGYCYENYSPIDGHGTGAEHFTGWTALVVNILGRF
Experimental: The α-glucosidase I (Baker's yeast) and its substrate (α-D-Glcl→2α-D-Glcl→3α-D-Glc-O(CH2)6 COOCH3) employed herein were prepared in accordance with the method of I. Neverova et al., Anal. Biochem., 222, 190-196 (1994).
The following measurements were performed by the methods described in this literature.
Namely, 25 μl of a buffer solution containing α-glucosidase I was added to a microtube containing the above-mentioned sample and the substrate (α-D-Glcl→2α-D-Glcl→3α-D-Glc-O(CH2)6 COOCH3). After incubating at 37° C. for 1 hour, a 1.25M tris hydrochloride buffer solution (pH 7.6, 25 μl) was added to thereby cease .the reaction. Then the reaction mixture was transferred onto a microplate followed by the addition of 250 μl of a reaction buffer solution [developing solution; 1M tris hydrochloride buffer solution (pH 7.2) containing glucose oxidase (5 units/ml, manufactured by Sigma), horseradish peroxidase (1 purpurogallin units, manufactured by Sigma) and o-dianisidine dihydrochloride (40 μg/ml)]. Then the mixture was incubated at 37° C. for 30 minutes or until an increase in the absorbance attained a plateau. Then the absorbance (A450-650) of the o-dianisidine formed and oxidized by this enzyme reaction was measured. As a blank, the above reaction was repeated but adding neither the above-mentioned sample nor substrate and the absorbance was measured. Also, the above-mentioned reaction buffer solution was added to D-glucose of a known concentration and the resulting mixture was incubated followed by the measurement of the absorbance to thereby examine a relationship between D-glucose concentration and absorbance. Each measurement was effected in two wells at the same time.
Based on the above-mentioned relationship between D-glucose concentration and absorbance, the amount of glucose liberated from the substrate due to the enzyme reaction of α-glucosidase I in the presence of the sample was determined. From the result thus obtained, Km was determined and then Ki was determined from the sample amount and the Km value.

[6] = pH 6.8, 37° C., 30 minutes, read-out: IC50 (M) α-Glucosidase (Baker's yeast)
[7] = α-glucosidase I, substrate 0.25-4.0 mM, 37° C., 1 hour, read-out: Ki

T1 sequence (P00722 2-1024 limits assumed): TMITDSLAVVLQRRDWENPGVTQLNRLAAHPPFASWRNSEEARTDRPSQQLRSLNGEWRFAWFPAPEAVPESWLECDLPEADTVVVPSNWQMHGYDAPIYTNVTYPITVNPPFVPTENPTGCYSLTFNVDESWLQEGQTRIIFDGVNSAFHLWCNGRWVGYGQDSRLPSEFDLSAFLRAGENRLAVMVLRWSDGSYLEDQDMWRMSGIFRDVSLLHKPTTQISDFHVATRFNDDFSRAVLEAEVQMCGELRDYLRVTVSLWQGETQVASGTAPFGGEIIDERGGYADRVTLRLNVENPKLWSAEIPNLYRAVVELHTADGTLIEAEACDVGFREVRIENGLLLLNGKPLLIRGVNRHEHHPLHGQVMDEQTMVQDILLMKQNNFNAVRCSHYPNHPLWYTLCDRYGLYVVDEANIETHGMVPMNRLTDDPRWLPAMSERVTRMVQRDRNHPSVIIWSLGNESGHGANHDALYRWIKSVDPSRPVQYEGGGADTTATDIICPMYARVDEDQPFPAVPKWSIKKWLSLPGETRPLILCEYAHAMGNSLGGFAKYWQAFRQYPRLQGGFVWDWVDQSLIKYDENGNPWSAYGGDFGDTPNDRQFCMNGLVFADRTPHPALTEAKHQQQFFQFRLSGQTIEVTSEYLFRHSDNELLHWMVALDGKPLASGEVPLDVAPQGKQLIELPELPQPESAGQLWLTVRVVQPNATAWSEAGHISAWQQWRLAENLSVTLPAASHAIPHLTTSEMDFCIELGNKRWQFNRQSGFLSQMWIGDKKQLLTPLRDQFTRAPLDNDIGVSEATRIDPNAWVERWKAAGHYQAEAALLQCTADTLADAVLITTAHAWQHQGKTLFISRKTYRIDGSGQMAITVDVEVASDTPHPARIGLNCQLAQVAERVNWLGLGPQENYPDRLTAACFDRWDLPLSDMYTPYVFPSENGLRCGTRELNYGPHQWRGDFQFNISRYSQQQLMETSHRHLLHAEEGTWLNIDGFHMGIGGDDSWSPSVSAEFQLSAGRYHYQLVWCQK

Row | Molecule | IC50 [2, 6] [M] | IC50 [3] [µM] | inhibitory activity against α-glucosidase (in words) [2] | Ki [5, 7] [µM] | also measured
1 | OC[C@]12OC(Nc3ccccc3)=N[C@H]1[C@@H](O)[C@H](O)[C@H]2O [Compound 1-2D, (1R,5S,6R,7S,8R)-1-hydroxymethyl-3-phenylamino-2-oxa-4-azabicyclo[3.3.0]oct-3-ene-6,7,8-triol] | 9.99e-07 | > 300 | – | – | IC50 [1]: > 0.0003 M; IC50 [4]: > 300 µM
2 | CCCCNC1=N[C@@H]2[C@H](O)[C@@H](O)[C@H](O)[C@]2(CO)O1 [Compound 2-2L, (1S,5R,6S,7R,8S)-1-hydroxymethyl-3-butylamino-2-oxa-4-azabicyclo[3.3.0]oct-3-ene-6,7,8-triol] | – | > 300 | remarkably strong inhibitory activities | 4.2 | inhibitory activity against β-glucosidase (in words) ([3]; summary of Table 1): weak inhibitory activities
3 | CCCCN[C@@H]1[C@H](O)[C@@H](O)[C@H](O)[C@@]1(O)CO [d-2, 1L-(1,2,4,5/3)-5-butylamino-1-hydroxymethyl-1,2,3,4-cyclopentanetetraol] | 1.7e-08 | 3 | remarkably strong inhibitory activities | – | –
5 | CCCCN(CCCC)[C@@H]1[C@H](O)[C@@H](O)[C@H](O)[C@@]1(O)CO [d-1, 1L-(1,2,4,5/3)-5-dibutylamino-1-hydroxymethyl-1,2,3,4-cyclopentanetetraol] | 5e-07 | 130 | remarkably strong inhibitory activities | – | –
6 | CCCCN1C[C@H](O)[C@@H](O)[C@H](O)[C@H]1CO [N-B-DNJ, N-butyldeoxynojirimycin, reference compound] | – | – | – | – | IC50 [2]: 8e-05 M; Ki [5]: 3.6 µM
7 | trehasolamine [reference compound] | 0.0005 | 9.9 | – | 1500 | –
8 | N[C@@H]1[C@H](O)[C@@H](O)[C@H](O)[C@@]1(O)CO [d, 1L-(1,2,4,5/3)-5-amino-1C-hydroxymethyl-1,2,3,4-cyclopentanetetraol] | – | – | remarkably strong inhibitory activities | 300 | IC50 ([1]; pH 7.3, room temperature, 30 minutes, read-out: IC50 (M) β-Galactosidase (E. coli)): > 0.0003 M; IC50 [2]: 4.02e-07 M
